Data: patent US9156796B2, “Benzoimidazole-carboxylic acid amide derivatives as APJ receptor modulators” (SANOFI, priority 2013, dated 2015)

target: T1, human apelin receptor (Homo sapiens, UniProt P35414); test: Determination of agonism on the human apelin receptor by a calcium fluorescence assay (FLIPR); assay type: cell-based; conditions: EC50 (APJ agonism), HEK293 cells stably transfected with human apelin receptor and Giaq protein, Fluo-4 calcium fluorescence
T1 construct: expressed in transfected cells
T1 sequence (P35414 1-380): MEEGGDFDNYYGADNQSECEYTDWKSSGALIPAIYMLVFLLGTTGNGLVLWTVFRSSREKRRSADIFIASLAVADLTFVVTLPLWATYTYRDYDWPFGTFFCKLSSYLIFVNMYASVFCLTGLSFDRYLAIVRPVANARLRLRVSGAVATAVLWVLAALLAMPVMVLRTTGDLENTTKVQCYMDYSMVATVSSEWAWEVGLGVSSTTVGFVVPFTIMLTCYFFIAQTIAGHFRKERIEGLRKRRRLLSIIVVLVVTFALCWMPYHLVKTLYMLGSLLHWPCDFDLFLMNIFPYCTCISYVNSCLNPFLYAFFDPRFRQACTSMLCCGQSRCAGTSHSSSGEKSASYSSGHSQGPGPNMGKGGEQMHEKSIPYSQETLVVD
How it was run: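 Agonist EC50s come from peak intracellular calcium transients recorded by FLIPR Tetra, scaled to the 1 μM apelin-13 maximum per plate. Test system: HEK293 stably transfected with human apelin receptor plus Giaq, Fluo-4-loaded (4 μM, 1 h, 37 °C, pH 7.4 buffer with probenecid); ≥7 concentrations, triplicates.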

Row | Compound | EC50 [nM]
1 | CCC(CC)n1c(Cc2cccs2)nc2cc(C(=O)N[C@H](COC)CC(C)C)ccc21 [Example 207, 1-(1-Ethyl-propyl)-2-thiophen-2-ylmethyl-1H-benzoimidazole-5-carboxylic acid ((S)-1-methoxymethyl-3-methyl-butyl)-amide] | 554

same assay, conditions: HEK293 cells stably transfected with human apelin receptor and Giaq protein, Fluo-4 calcium fluorescence, read-out: EC50 (APJ agonism)

Row | Compound | EC50 [nM]
2 | CCC(CC)n1c(Cc2cccs2)nc2cc(C(=O)N[C@H](CC(=O)O)CC3CCCC3)ccc21 [Example 60, (S)-4-Cyclopentyl-3-{[1-(1-ethyl-propyl)-2-thiophen-2-ylmethyl-1H-benzoimidazole-5-carbonyl]-amino}-butyric acid] | 46
3 | CCCC(C)(NC(=O)c1ccc2c(c1)nc(Cc1cccs1)n2C(CC)CC)C(=O)O (centres unmarked) [Example 25, 2-{[1-(1-Ethyl-propyl)-2-thiophen-2-ylmethyl-1H-benzoimidazole-5-carbonyl]-amino}-2-methyl-pentanoic acid] | 4750
4 | CCC(CC)n1c(Cc2cccs2)nc2cc(C(=O)N[C@@H](CC(C)C)C(=O)NCC3CN(Cc4ccc(F)cc4)CCO3)ccc21 (stereo partly drawn) [Example 356, 1-(1-Ethyl-propyl)-2-thiophen-2-ylmethyl-1H-benzoimidazole-5-carboxylic acid ((S)-1-{[4-(4-fluoro-benzyl)-morpholin-2-ylmethyl]-carbamoyl}-3-methyl-butyl)-amide] | 4260
5 | CCC(CC)n1c(Cc2cccs2)nc2cc(C(=O)NC(CC3CCCCCC3)C(=O)O)ccc21 (single isomer, unassigned) [Example 448] | 706
6 | CCC(CC)n1c(Cc2cccs2)nc2cc(C(=O)NC(CC(=O)O)CC(C)(C)C)ccc21 (centres unmarked) [Example 47, 3-{[1-(1-Ethyl-propyl)-2-thiophen-2-ylmethyl-1H-benzoimidazole-5-carbonyl]-amino}-5,5-dimethyl-hexanoic acid] | 2580
7 | CCC(CC)n1c(Cc2cccs2)nc2cc(C(=O)N[C@@H](CC(C)C)C(=O)N3CC4CC3CN4Cc3ccc(C(F)(F)F)cc3)ccc21 (stereo partly drawn) [Example 350, 1-(1-Ethyl-propyl)-2-thiophen-2-ylmethyl-1H-benzoimidazole-5-carboxylic acid {(S)-3-methyl-1-[5-(4-trifluoromethyl-benzyl)-2,5-diaza-bicyclo[2.2.1]heptane-2-carbonyl]-butyl}-amide] | 29100
8 | C[C@@H]1CCCC[C@H]1n1c(Cc2cccs2)nc2cc(C(=O)N[C@H](CC(=O)O)CC3CCCC3)ccc21 [Example 61, (S)-4-Cyclopentyl-3-{[1-((1R,2R)-2-methyl-cyclohexyl)-2-thiophen-2-ylmethyl-1H-benzoimidazole-5-carbonyl]-amino}-butyric acid] | 75
9 | CCC(C)n1c(CC2CCCC2)nc2cc(C(=O)N[C@@H](CC(C)C)C(=O)O)ccc21 (stereo partly drawn) [Example 149, (S)-2-[(1-sec-Butyl-2-cyclopentylmethyl-1H-benzoimidazole-5-carbonyl)-amino]-4-methyl-pentanoic acid] | 27000
10 | CCC(CC)n1c(CC2CCCO2)nc2cc(C(=O)N[C@@H](CC3CCCCC3)C(=O)O)ccc21 (stereo partly drawn) [Example 151, (S)-3-Cyclohexyl-2-{[1-(1-ethyl-propyl)-2-(tetrahydro-furan-2-ylmethyl)-1H-benzoimidazole-5-carbonyl]-amino}-propionic acid] | 890
11 | CCC(CC)n1c(Cc2cccs2)nc2cc(C(=O)N[C@H](Cc3noc(C4CC4)n3)CC(C)C)ccc21 [Example 475, 1-(1-Ethyl-propyl)-2-thiophen-2-ylmethyl-1H-benzoimidazole-5-carboxylic acid [(S)-1-(5-cyclopropyl-[1,2,4]oxadiazol-3-ylmethyl)-3-methyl-butyl]-amide] | 2820
12 | CCC(CC)n1c(Cc2cccs2)nc2cc(C(=O)N[C@@H](CC(C)C)C(=O)NCCCN3CCS(=O)(=O)CC3)ccc21 [Example 342, 1-(1-Ethyl-propyl)-2-thiophen-2-ylmethyl-1H-benzoimidazole-5-carboxylic acid {(S)-1-[3-(1,1-dioxo-1lambda6-thiomorpholin-4-yl)-propylcarbamoyl]-3-methyl-butyl}-amide] | 999
13 | CCC(CC)n1c(Cc2cccs2)nc2cc(C(=O)N[C@@H](CC(C)C)C(=O)N3CCC(N4CCCCC4)C3)ccc21 (stereo partly drawn) [Example 299, 1-(1-Ethyl-propyl)-2-thiophen-2-ylmethyl-1H-benzoimidazole-5-carboxylic acid [(S)-3-methyl-1-(3-piperidin-1-yl-pyrrolidine-1-carbonyl)-butyl]-amide] | 776
14 | CCC(CC)n1c(Cc2cccs2)nc2cc(C(=O)N[C@H](CC(=O)O)Cc3ccccc3)ccc21 [Example 100, (S)-3-{[1-(1-Ethyl-propyl)-2-thiophen-2-ylmethyl-1H-benzoimidazole-5-carbonyl]-amino}-4-phenyl-butyric acid] | 5840
15 | CCC(CC)n1c(Cc2cccs2)nc2cc(C(=O)N[C@@H](CC(C)C)C(=O)NCCCN3CCCC(C)C3)ccc21 (stereo partly drawn) [Example 339, 1-(1-Ethyl-propyl)-2-thiophen-2-ylmethyl-1H-benzoimidazole-5-carboxylic acid {(S)-3-methyl-1-[3-(3-methyl-piperidin-1-yl)-propylcarbamoyl]-butyl}-amide] | 444
16 | CCC(CC)n1c(Cc2cccs2)nc2cc(C(=O)NC3(CO)CCCC3)ccc21 [Example 193, 1-(1-Ethyl-propyl)-2-thiophen-2-ylmethyl-1H-benzoimidazole-5-carboxylic acid (1-hydroxymethyl-cyclopentyl)-amide] | 6220
17 | CCC(CC)n1c(Cc2cccs2)nc2cc(C(=O)N[C@H](CC(=N)NO)CC(C)C)ccc21 [Example 473, 1-(1-Ethyl-propyl)-2-thiophen-2-ylmethyl-1H-benzoimidazole-5-carboxylic acid [(S)-1-(N-hydroxycarbamimidoylmethyl)-3-methyl-butyl]-amide] | 173
18 | CCC(CC)n1c(Cc2cccs2)nc2cc(C(=O)N[C@@H](Cc3ccccc3)C(=O)O)ccc21 [Example 124, (S)-2-{[1-(1-Ethyl-propyl)-2-thiophen-2-ylmethyl-1H-benzoimidazole-5-carbonyl]-amino}-3-phenyl-propionic acid] | 9350
19 | CC(C)C[C@H](NC(=O)c1ccc2c(c1)nc(Cc1cccs1)n2C1CCCCCC1)C(=O)O [Example 111, (S)-2-[(1-Cycloheptyl-2-thiophen-2-ylmethyl-1H-benzoimidazole-5-carbonyl)-amino]-4-methyl-pentanoic acid] | 579
20 | CC(C)C[C@H](NC(=O)c1ccc2c(c1)nc(Cc1ccsc1)n2C1CCCCC1)C(=O)O [Example 152, (S)-2-[(1-Cyclohexyl-2-thiophen-3-ylmethyl-1H-benzoimidazole-5-carbonyl)-amino]-4-methyl-pentanoic acid] | 3950
21 | CCC(CC)n1c(Cc2cccs2)nc2cc(C(=O)N[C@@H](CC3CCCCC3)[C@@H](O)CC(=O)O)ccc21 [Example 79, (3S,4S)-5-Cyclohexyl-4-{[1-(1-ethyl-propyl)-2-thiophen-2-ylmethyl-1H-benzoimidazole-5-carbonyl]-amino}-3-hydroxy-pentanoic acid] | 80
22 | CCCC[C@H](CO)NC(=O)c1ccc2c(c1)nc(Cc1cccs1)n2C(CC)CC [Example 198, 1-(1-Ethyl-propyl)-2-thiophen-2-ylmethyl-1H-benzoimidazole-5-carboxylic acid ((R)-1-hydroxymethyl-pentyl)-amide] | 8880
23 | CCC(CC)n1c(Cc2cccs2)nc2cc(C(=O)N[C@@H](CC(C)C)C(=O)N3CCCC(COC)C3)ccc21 (stereo partly drawn) [Example 378, 1-(1-Ethyl-propyl)-2-thiophen-2-ylmethyl-1H-benzoimidazole-5-carboxylic acid [(S)-1-(3-methoxymethyl-piperidine-1-carbonyl)-3-methyl-butyl]-amide] | 2440
24 | CCCCC(NC(=O)c1ccc2c(c1)nc(Cc1cccs1)n2C(CC)CC)C(C)(C)C(=O)O (single isomer, unassigned) [Example 469] | 60
25 | CC(C)C[C@H](NC(=O)c1ccc2c(c1)nc(Cc1cccs1)n2C1CCCCC1)C(=O)O [Example 108, (S)-2-[(1-Cyclohexyl-2-thiophen-2-ylmethyl-1H-benzoimidazole-5-carbonyl)-amino]-4-methyl-pentanoic acid] | 1060
26 | CCC(CC)n1c(Cc2cccs2)nc2cc(C(=O)N[C@@H](CC(C)C)C(=O)NC[C@@H]3CCCO3)ccc21 [Example 368, 1-(1-Ethyl-propyl)-2-thiophen-2-ylmethyl-1H-benzoimidazole-5-carboxylic acid ((S)-3-methyl-1-{[(S)-1-(tetrahydro-furan-2-yl)methyl]-carbamoyl}-butyl)-amide] | 1880
27 | CC(C)C[C@H](NC(=O)c1ccc2c(c1)nc(Cc1cccs1)n2C1CCCCC1C)C(=O)O (single isomer, unassigned) [Example 412] | 106
28 | CC(C)C[C@H](NC(=O)c1ccc2c(c1)nc(Cc1cccs1)n2-c1ccccc1Cl)C(=O)O [Example 165, (S)-2-{[1-(2-Chloro-phenyl)-2-thiophen-2-ylmethyl-1H-benzoimidazole-5-carbonyl]-amino}-4-methyl-pentanoic acid] | 1010
29 | CCC(CC)n1c(Cc2cccs2)nc2cc(C(=O)NC(C)(Cc3ccccc3)C(=O)O)ccc21 (centres unmarked) [Example 4, 2-{[1-(1-Ethyl-propyl)-2-thiophen-2-ylmethyl-1H-benzoimidazole-5-carbonyl]-amino}-2-methyl-3-phenyl-propionic acid] | 16800
